In the assay the target is VMAT2 (Homo sapiens (Human), UniProt Q05940). The experiment in a line: VMAT2 radioligand binding assay: competition against 3H-dihydrotetrabenezine on human platelet homogenate (modified procedure). The settings on record: 10 nM 3H-dihydrotetrabenezine, 25° C., 90 minutes. The procedure:
Examples of techniques for determining the capability of a compound to inhibit VMAT2 are provided below. The procedure is adapted from that described previously (see, e.g., Near, (1986), Mol. Pharmacol. 30: 252-57; Teng, et al., J. Neurochem. 71, 258-65, 1998). Homogenates from human platelets or Sprague-Dawley rat forebrain were prepared by homogenization and then washed by centrifugation as described previously (see, e.g., Hoare et al., (2003) Peptides 24:1881-97). […] Following incubation at 25° C. for two hours, bound radioligand was collected by rapid filtration onto GF/B glass fiber filters using a Unifilter-96 Harvester (PerkinElmer). Filter plates were pre-treated for 10 minutes with 0.1% polyethylenimine, and following harvesting the filter plates were washed with 800 μl VMAT2 binding buffer. Bound radioligand was quantified by scintillation counting using a Topcount NXT (PerkinElmer).
Following incubation at 25° C. for 90 minutes, bound radioligand was collected by rapid filtration onto GF/B glass fiber filters using a Unifilter-96 Harvester (PerkinElmer). Filter plates were pre-treated with 0.1% polyethylenimine and allowed to dry overnight, and following harvesting the filter plates were washed with 800 μl VMAT2 binding buffer. Bound radioligand was quantified by scintillation counting using a Topcount NXT (PerkinElmer).

pKi: −log10 of the molar value.

Drawing on patent US11040970B2, “VMAT2 inhibitor compounds and compositions thereof” (Neurocrine Biosciences, Inc., priority 2017, dated 2021), this text covers Ki for 28 compounds.

What is called pKi is the Ki on a negative log10 scale, so that one unit is a factor of ten. A high value points to a low Ki.

Chain of VMAT2 (Q05940 whole entry): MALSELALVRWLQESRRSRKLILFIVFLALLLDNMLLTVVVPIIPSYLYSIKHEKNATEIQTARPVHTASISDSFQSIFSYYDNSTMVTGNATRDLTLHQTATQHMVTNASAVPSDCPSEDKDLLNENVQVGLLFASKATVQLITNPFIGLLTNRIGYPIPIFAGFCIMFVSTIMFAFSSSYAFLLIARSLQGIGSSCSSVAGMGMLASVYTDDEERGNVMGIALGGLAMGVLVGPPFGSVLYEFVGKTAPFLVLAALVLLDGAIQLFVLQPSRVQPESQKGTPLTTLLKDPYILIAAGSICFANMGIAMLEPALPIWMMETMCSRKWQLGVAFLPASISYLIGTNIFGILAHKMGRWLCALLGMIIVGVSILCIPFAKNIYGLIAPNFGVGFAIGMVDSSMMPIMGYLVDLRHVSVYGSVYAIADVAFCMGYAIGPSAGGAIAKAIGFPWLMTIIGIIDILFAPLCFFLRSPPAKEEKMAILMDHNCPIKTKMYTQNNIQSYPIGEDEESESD

Take `COc1cc2c(cc1OCC1CC1(F)F)CCN1C[C@@H](CC(C)C)N(C)C[C@H]21` (stereo partly drawn) [Compound 5-18, (3R,11bS)-9-[(2,2-difluorocyclopropyl)methoxy]-10-methoxy-2-methyl-3-(2-methylpropyl)-1H,2H,3H,4H,6H,7H,11bH-piperazino[2,1-a]isoquinoline]: the negative logarithm of the Ki (pKi) was above 8.00.

`COc1cc2c(cc1OCCC(F)(F)F)CCN1C[C@@H](CC(C)C)N(C)C[C@H]21` [Compound 5-19, (3R,11bS)-10-methoxy-2-methyl-3-(2-methylpropyl)-9-(3,3,3-trifluoropropoxy)-1H,2H,3H,4H,6H,7H,11bH-piperazino[2,1-a]isoquinoline]: the pKi was above 8.00.

Compound `COc1cc2c(cc1OC(C)C)CCN1C[C@@H](CC(C)C)N(C)C[C@@H]21` [Compound 6-1, (3R,11bR)-10-methoxy-2-methyl-3-(2-methylpropyl)-9-(propan-2-yloxy)-1H,2H,3H,4H,6H,7H,11bH-piperazino[2,1-a]isoquinoline] gave a pKi below 6.30.

For the compound `COc1cc2c(cc1OCCCF)CCN1C[C@@H](CC(C)C)N(C)C[C@@H]21` [Compound 6-2, (3R,11bR)-9-(3-fluoropropoxy)-10-methoxy-2-methyl-3-(2-methylpropyl)-1H,2H,3H,4H,6H,7H,11bH-piperazino[2,1-a]isoquinoline], the pKi is below 6.30.

`COc1cc2c(cc1OCCF)CCN1C[C@@H](CC(C)C)N(C)C[C@@H]21` [Compound 6-3, (3R,11bR)-9-(2-fluoroethoxy)-10-methoxy-2-methyl-3-(2-methylpropyl)-1H,2H,3H,4H,6H,7H,11bH-piperazino[2,1-a]isoquinoline]: the negative logarithm of the Ki (pKi) is below 6.30.

Turning to `COc1cc2c(cc1OC1CC1)CCN1C[C@@H](CC(C)C)N(C)C[C@@H]21` [Compound 6-4, (3R,11bR)-9-cyclopropoxy-10-methoxy-2-methyl-3-(2-methylpropyl)-1H,2H,3H,4H,6H,7H,11bH-piperazino[2,1-a]isoquinoline], the negative-log Ki (pKi) was below 6.30.

`COc1cc2c(cc1OCCCF)CCN1C[C@@H](CC3CCC3)N(C)C[C@H]21` [Compound 8-1, (3R,11bS)-3-(cyclobutylmethyl)-9-(3-fluoropropoxy)-10-methoxy-2-methyl-1H,2H,3H,4H,6H,7H,11bH-piperazino[2,1-a]isoquinoline] gave a pKi of 6.30 to 8.00.

Compound `COc1cc2c(cc1OCC(F)(F)F)CCN1C[C@@H](CC3CCC3)N(C)C[C@H]21` [Compound 8-2, (3R,11bS)-3-(cyclobutylmethyl)-10-methoxy-2-methyl-9-(2,2,2-trifluoroethoxy)-1H,2H,3H,4H,6H,7H,11bH-piperazino[2,1-a]isoquinoline] showed a pKi above 8.00.

`COc1cc2c(cc1OCC1CC1(F)F)CCN1C[C@@H](CC3CCC3)N(C)C[C@H]21` (stereo partly drawn) [Compound 8-3, (3R,11bS)-3-(cyclobutylmethyl)-9-[(2,2-difluorocyclopropyl)methoxy]-10-methoxy-2-methyl-1H,2H,3H,4H,6H,7H,11bH-piperazino[2,1-a]isoquinoline]: the pKi was 6.30 to 8.00.

`COc1cc2c(cc1OCCF)CCN1C[C@@H](CC3CCC3)N(C)C[C@H]21` [Compound 8-4, (3R,11bS)-3-(cyclobutylmethyl)-9-(2-fluoroethoxy)-10-methoxy-2-methyl-1H,2H,3H,4H,6H,7H,11bH-piperazino[2,1-a]isoquinoline]: the pKi is 6.30 to 8.00.

Consider `COc1cc2c(cc1OCC1CC1)CCN1C[C@@H](CC3CCC3)N(C)C[C@H]21` [Compound 8-5, (3R,11bS)-3-(cyclobutylmethyl)-9-(cyclopropylmethoxy)-10-methoxy-2-methyl-1H,2H,3H,4H,6H,7H,11bH-piperazino[2,1-a]isoquinoline], for which the pKi was 6.30 to 8.00.

In turn, `COc1cc2c(cc1OCC1CCC1)CCN1C[C@@H](CC3CCC3)N(C)C[C@H]21` [Compound 8-6, (3R,11bS)-9-(cyclobutylmethoxy)-3-(cyclobutylmethyl)-10-methoxy-2-methyl-1H,2H,3H,4H,6H,7H,11bH-piperazino[2,1-a]isoquinoline] gave a pKi above 8.00.

With `COc1cc2c(cc1OCCCC(F)(F)F)CCN1C[C@@H](CC3CCC3)N(C)C[C@H]21` [Compound 8-7, (3R,11bS)-3-(cyclobutylmethyl)-10-methoxy-2-methyl-9-(4,4,4-trifluorobutoxy)-1H,2H,3H,4H,6H,7H,11bH-piperazino[2,1-a]isoquinoline], the negative-log Ki (pKi) is 6.30 to 8.00.

In turn, `COc1cc2c(cc1OCCCCF)CCN1C[C@@H](CC3CCC3)N(C)C[C@H]21` [Compound 8-8, (3R,11bS)-3-(cyclobutylmethyl)-9-(4-fluorobutoxy)-10-methoxy-2-methyl-1H,2H,3H,4H,6H,7H,11bH-piperazino[2,1-a]isoquinoline] had a pKi of 6.30 to 8.00.

`COc1cc2c(cc1OCCCF)CCN1C[C@@H](CC3CCC3)N(C)C[C@@H]21` [Compound 9-1, (3R,11bR)-3-(cyclobutylmethyl)-9-(3-fluoropropoxy)-10-methoxy-2-methyl-1H,2H,3H,4H,6H,7H,11bH-piperazino[2,1-a]isoquinoline] showed a negative-log Ki (pKi) below 6.30.

`COc1cc2c(cc1OCCCF)CCN1C[C@@H](CC(C)(C)C)N(C)C[C@H]21` [Compound 11-1, (3R,11bS)-3-(2,2-dimethylpropyl)-9-(3-fluoropropoxy)-10-methoxy-2-methyl-1H,2H,3H,4H,6H,7H,11bH-piperazino[2,1-a]isoquinoline]: the pKi was above 8.00.

As to `COc1cc2c(cc1OC)[C@H]1CN(C)[C@H](CC(C)(C)C)CN1CC2` [Compound 11-2, (3R,11bS)-3-(2,2-dimethylpropyl)-9,10-dimethoxy-2-methyl-1H,2H,3H,4H,6H,7H,11bH-piperazino[2,1-a]isoquinoline], the negative logarithm of the Ki (pKi) was above 8.00.

As for `COc1cc2c(cc1OCC(F)(F)F)CCN1C[C@@H](CC(C)(C)C)N(C)C[C@H]21` [Compound 11-3, (3R,11bS)-3-(2,2-dimethylpropyl)-10-methoxy-2-methyl-9-(2,2,2-trifluoroethoxy)-1H,2H,3H,4H,6H,7H,11bH-piperazino[2,1-a]isoquinoline], the negative logarithm of the Ki (pKi) was above 8.00.

`COc1cc2c(cc1OCC1CC1(F)F)CCN1C[C@@H](CC(C)(C)C)N(C)C[C@H]21` (stereo partly drawn) [Compound 11-4, (3R,11bS)-9-[(2,2-difluorocyclopropyl)methoxy]-3-(2,2-dimethylpropyl)-10-methoxy-2-methyl-1H,2H,3H,4H,6H,7H,11bH-piperazino[2,1-a]isoquinoline] showed a pKi above 8.00.

With `COc1cc2c(cc1OCCC(F)(F)F)CCN1C[C@@H](CC(C)(C)C)N(C)C[C@H]21` [Compound 11-5, (3R,11bS)-3-(2,2-dimethylpropyl)-10-methoxy-2-methyl-9-(3,3,3-trifluoropropoxy)-1H,2H,3H,4H,6H,7H,11bH-piperazino[2,1-a]isoquinoline], the negative logarithm of the Ki (pKi) was above 8.00.

`COc1cc2c(cc1OCCF)CCN1C[C@@H](CC(C)(C)C)N(C)C[C@H]21` [Compound 11-6, (3R,11bS)-3-(2,2-dimethylpropyl)-9-(2-fluoroethoxy)-10-methoxy-2-methyl-1H,2H,3H,4H,6H,7H,11bH-piperazino[2,1-a]isoquinoline]: the pKi was above 8.00.

For `COc1cc2c(cc1OCC1CC1)CCN1C[C@@H](CC(C)(C)C)N(C)C[C@H]21` [Compound 11-7, (3R,11bS)-9-(cyclopropylmethoxy)-3-(2,2-dimethylpropyl)-10-methoxy-2-methyl-1H,2H,3H,4H,6H,7H,11bH-piperazino[2,1-a]isoquinoline], the negative-log Ki (pKi) is above 8.00.

In the case of `COc1cc2c(cc1OCC1CCC1)CCN1C[C@@H](CC(C)(C)C)N(C)C[C@H]21` [Compound 11-8, (3R,11bS)-9-(cyclobutylmethoxy)-3-(2,2-dimethylpropyl)-10-methoxy-2-methyl-1H,2H,3H,4H,6H,7H,11bH-piperazino[2,1-a]isoquinoline], the pKi was above 8.00.

`COc1cc2c(cc1OCCCC(F)(F)F)CCN1C[C@@H](CC(C)(C)C)N(C)C[C@H]21` [Compound 11-9, (3R,11bS)-3-(2,2-dimethylpropyl)-10-methoxy-2-methyl-9-(4,4,4-trifluorobutoxy)-1H,2H,3H,4H,6H,7H,11bH-piperazino[2,1-a]isoquinoline] gave a pKi above 8.00.

For `COc1cc2c(cc1OCCCCF)CCN1C[C@@H](CC(C)(C)C)N(C)C[C@H]21` [Compound 11-10, (3R,11bS)-3-(2,2-dimethylpropyl)-9-(4-fluorobutoxy)-10-methoxy-2-methyl-1H,2H,3H,4H,6H,7H,11bH-piperazino[2,1-a]isoquinoline], the pKi is above 8.00.

`COCCOc1cc2c(cc1OC)[C@H]1CN(C)[C@H](CC(C)(C)C)CN1CC2` [Compound 11-11, (3R,11bS)-3-(2,2-dimethylpropyl)-10-methoxy-9-(2-methoxyethoxy)-2-methyl-1H,2H,3H,4H,6H,7H,11bH-piperazino[2,1-a]isoquinoline] showed a pKi of 6.30 to 8.00.

`CCOc1cc2c(cc1OC)[C@H]1CN(C)[C@H](CC(C)(C)C)CN1CC2` [Compound 11-12, (3R,11bS)-3-(2,2-dimethylpropyl)-9-ethoxy-10-methoxy-2-methyl-1H,2H,3H,4H,6H,7H,11bH-piperazino[2,1-a]isoquinoline] gave a negative-log Ki (pKi) above 8.00.

In the case of `COc1cc2c(cc1OC(C)C)CCN1C[C@@H](CC(C)(C)C)N(C)C[C@H]21` [Compound 11-13, (3R,11bS)-3-(2,2-dimethylpropyl)-10-methoxy-2-methyl-9-(propan-2-yloxy)-1H,2H,3H,4H,6H,7H,11bH-piperazino[2,1-a]isoquinoline], the pKi is above 8.00.
